The values below come from publication PMC6154719 (Molecules : A Journal of Synthetic Chemistry and Natural …, 2017).

In general, inhibition refers to how much of the control response was suppressed. As usually defined, the IC50 is the concentration needed to halve the response being measured.

Holding throughout (assay type): in vitro ADME
The subject of one data set is CYP2B/3A. The data set can be described thus: CYP2B/3A (BROD activity, benzyloxyresorufin O-debenzylation) in human liver microsomes. The conditions noted are these: for Specific Activity, CYP2B/3A (BROD activity): in the presence of 100 µM sesquiterpene, control 1.22 ± 0.05; for inhibition at 5 µM: liver microsomes, human, 5 µM inhibitor; for inhibition at 5 µM / IC50: probe benzyloxyresorufin. The protocol:
(§1) Enzyme activities were assayed in human and rat liver cytosolic and microsomal fractions. The enzyme assays (each performed in 4–8 replicates) were repeated three times (HPLC measurement of CYP activities was repeated only twice, Table 3). Inhibition studies were carried out by incubation of specific substrates in the presence of sesquiterpenes (in the range 0–100 µM).
Enzyme activities of individual CYP forms were measured according to established protocols. The following microsomal CYP activities were tested: CYP2A6, coumarin 7-hydroxylation; CYP2B6, 7-ethoxy-4-(trifluoromethyl)coumarin 7-deethylation, CYP2C9, diclofenac 4′-hydroxylation, CYP2C19 assay, S-mephenytoin 4′-hydroxylation, CYP2D6 on bufuralol 1′-hydroxylation, CYP2E1, chlorzoxazone 6-hydroxylation and CYP3A4, testosterone 6β-hydroxylation, and midazolam 1′-hydroxylation. Activities were measured using the Prominence HPLC system (Shimadzu, Kyoto, Japan), equipped with a LiChroCART 250-4 LiChrospher 100 RP-18 column or Chromolith®HighResolution RP-18 end-capped column (Merck, Darmstadt, Germany) and UV or fluorescence detection, according to the cited literature. Further incubation details are described either in the corresponding references, as well as in the papers from this laboratory e.g., [42, 43, 44]. CYP1A2, 7-ethoxyresorufin O-deethylation, and CYP3A4/2B6 (human), CYP2B1 (rat), benzyloxyresorufin O-debenzylation were measured using the microplate reader Tecan Infinite M200 (Tecan Group; Mannedorf, Switzerland).
(§2) Sesquiterpenes CNER, TNER and FAR, non-volatile liquids, were pipetted, and proper concentration was calculated according to density. All compounds were dissolved in DMSO. The final solvent concentration in the inhibition assays was 1%, which had no effect on the enzyme activity (data not shown). Non-enzymatic interference of sesquiterpenes with some compounds in the reaction mixtures (e.g., fluorescence enhancing or quenching) was considered and excluded. All experiments were performed in three replicates, if not stated otherwise.
(§3) CNER, TNER and FAR at a fixed concentration of 100 µM were screened for inhibition of cytosolic AKR1A1, AKR1C, CBR1, NQO1, SULT, and GST, and microsomal CYPs and UGT. The degree of inhibition caused by sesquiterpenes was compared with non-inhibited control reactions, which contained solvent without sesquiterpenes.
The concentration of sesquiterpenes required for 50% inhibition of enzyme activity, the IC50 value, was determined. Their final concentrations in the reaction mixture were proposed to cover the entire inhibitory range of these compounds (1–100 µM). The IC50 values for each sesquiterpene were determined by plotting sigmoidal dose response curves of specific enzyme activity vs. logarithm of sesquiterpene concentration using GraphPad Prism version 6.07 for Windows (GraphPad Software Inc., La Jolla, CA, USA).
The kinetic inactivation study of the CYP1A2 (EROD activity) and CYP2B/3A (BROD activity), both in rat and human, with TNER, was performed to find out the mechanism of enzyme inhibition by this sesquiterpene. Mechanism of EROD and BROD inhibition was tested at the final ethoxyresorufin or benzyloxyresorufin concentrations 0.5–5.0 µM. The concentration of TNER was 5.0 µM.
Experimental data were fitted to the Michaelis-Menten equation, basic kinetic parameters were determined using the program GraphPad Prism version 6.07 for Windows. The type of inhibition was estimated using a Lineweaver-Burk (double-reciprocal) plot.
(In general: Liver microsomes are a subcellular fraction often used to study metabolism.)

Another data set concerns AKR1C. The data set can be described thus: AKR1C activity in human liver subcellular fraction. The following applies: 100 µM sesquiterpene, control 23.5 ± 2.4. The protocol: as §1
(§4) The assays of all other enzymes were based on spectrophotometric detection of product formed or detection of decreasing substrate/cofactor levels using microplate reader Tecan Infinite M200 in cytosolic or microsomal fractions. Enzyme activities were determined using slight modifications of previously-published methods: carbonyl reducing enzymes (AKR1A, AKR1C, CBR1 [45], NQO1 [46]), UDP-glucuronosyltransferase (UGT [47]), sulfotransferase (SULT [48]), and cytosolic glutathione-S-transferase (GST [49]).
as §2, §3

The target of data set [1] is T1, NQO1 (Homo sapiens, UniProt P15559).
T1 construct: Frozen liver (both rat and human) was thawed; from tissue; host or cells: human liver cytosolic fraction
T1 sequence (P15559 whole entry): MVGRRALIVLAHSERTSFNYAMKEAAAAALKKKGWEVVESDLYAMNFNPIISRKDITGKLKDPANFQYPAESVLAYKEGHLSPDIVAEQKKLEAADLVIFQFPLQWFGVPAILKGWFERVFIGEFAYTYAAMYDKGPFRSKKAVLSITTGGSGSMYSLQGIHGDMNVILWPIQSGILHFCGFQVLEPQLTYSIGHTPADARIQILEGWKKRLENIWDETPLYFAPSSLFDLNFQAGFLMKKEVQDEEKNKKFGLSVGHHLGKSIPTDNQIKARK
The data set can be described thus: NQO1 activity in human liver subcellular fraction. The conditions noted are these: 100 µM sesquiterpene, control 6.38 ± 0.34. The protocol:
as §1, §4, §2, §3

The target of the next data set is T2, AKR1A (Rattus norvegicus, UniProt P51635).
T2 construct: Frozen liver (both rat and human) was thawed; from tissue; host or cells: rat liver cytosolic fraction
T2 sequence (P51635 1-325): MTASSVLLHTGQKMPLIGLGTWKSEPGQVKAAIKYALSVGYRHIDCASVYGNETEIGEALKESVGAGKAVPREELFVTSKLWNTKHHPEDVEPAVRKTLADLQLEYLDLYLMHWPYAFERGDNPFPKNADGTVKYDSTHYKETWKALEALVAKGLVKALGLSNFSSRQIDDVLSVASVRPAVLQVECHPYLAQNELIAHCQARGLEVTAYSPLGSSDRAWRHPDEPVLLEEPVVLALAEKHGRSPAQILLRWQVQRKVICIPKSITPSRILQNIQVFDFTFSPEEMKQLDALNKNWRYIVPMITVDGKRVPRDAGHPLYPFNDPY
The data set can be described thus: AKR1A activity in rat liver subcellular fraction. The conditions noted are these: 100 µM sesquiterpene, control 3.60 ± 0.13. The protocol:
as §1, §4, §2, §3

In data set [2] the target is T3, NQO1 (Rattus norvegicus, UniProt P05982).
T3 construct: Frozen liver (both rat and human) was thawed; from tissue; host or cells: rat liver cytosolic fraction
T3 sequence (P05982 2-274 limits assumed): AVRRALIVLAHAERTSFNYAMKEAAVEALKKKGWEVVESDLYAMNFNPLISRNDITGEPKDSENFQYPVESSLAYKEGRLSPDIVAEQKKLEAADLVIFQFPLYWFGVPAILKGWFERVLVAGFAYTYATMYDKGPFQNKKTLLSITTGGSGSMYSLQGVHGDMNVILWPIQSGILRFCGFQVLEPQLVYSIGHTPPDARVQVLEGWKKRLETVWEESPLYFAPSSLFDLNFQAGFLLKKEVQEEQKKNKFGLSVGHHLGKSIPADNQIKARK
The data set can be described thus: NQO1 activity in rat liver subcellular fraction. The following applies: 100 µM sesquiterpene, control 25.3 ± 5.6. The protocol:
as §1, §4, §2, §3

The next data set deals with SULT. The data set can be described thus: SULT activity in human liver subcellular fraction. The conditions noted are these: 100 µM sesquiterpene, control 2.73 ± 0.18. As for the experimental part: as §1, §4, §2, §3

In the case of `C=CC(C)(O)CC/C=C(/C)CCC=C(C)C` (stereo not drawn) [CNER, cis-nerolidol], in the data set with CYP2B/3A (human liver microsomes), the “Specific Activity, CYP2B/3A (BROD activity)” value (“Specific Activity, CYP2B/3A” below) was determined as 0.168 ± 0.007 pmol/mg/min and the IC50 was 1320 nM. Further, the inhibition at 5 µM in the data set with CYP2B/3A is 71%. In the data set with AKR1C, the “Specific activity, AKR1C” value came out at 22.7 ± 1.5 nmol/mg/min. Further, the “Specific activity, NQO1” value at NQO1 [1] stood at 5.44 ± 0.82 nmol/mg/min. On AKR1A, the “Specific activity, AKR1A” value is listed as 3.86 ± 0.47 nmol/mg/min. At NQO1 [2], the “Specific activity, NQO1” value is listed as 21.7 ± 3.6 nmol/mg/min. For the same compound, in the data set with SULT, the “Specific activity, SULT” value was 3.12 ± 0.29 nmol/mg/min.

Take `C=CC(C)(O)CC/C=C(\C)CCC=C(C)C` (stereo not drawn) [TNER, trans-nerolidol]: the “K’M” value in the data set with CYP2B/3A (human liver microsomes, benzyloxyresorufin 0.5–5.0 µM in the presence of TNER 5 µM, KM without TNER 0.93 ± 0.22) came to 0.94 ± 0.39 µM. The “V’MAX” value with CYP2B/3A (human liver microsomes, benzyloxyresorufin 0.5–5.0 µM in the presence of TNER 5 µM, VMAX without TNER 2.27 ± 0.17) came to 0.74 ± 0.10 nM/min. Moreover, in the data set on CYP2B/3A (human liver microsomes), the “Specific Activity, CYP2B/3A” value came out at 0.188 ± 0.005 pmol/mg/min and the 50% inhibitory concentration (IC50) came to 2400 nM. In addition, the “type of inhibition, BROD activity” value in the data set with CYP2B/3A (human microsomes, 5 µM TNER, benzyloxyresorufin 0.5–5.0 µM) is listed as “non-competitive”. For the same compound, in the data set on CYP2B/3A, the inhibition at 5 µM is 68%. The “Specific activity, AKR1C” value with AKR1C amounted to 21.4 ± 1.0 nmol/mg/min. For the same compound, the “Specific activity, NQO1” value at NQO1 [1] is given as 5.53 ± 0.51 nmol/mg/min. The “Specific activity, AKR1A” value at AKR1A is on record as 3.71 ± 0.56 nmol/mg/min. For the same compound, at NQO1 [2], the “Specific activity, NQO1” value stood at 21.8 ± 2.4 nmol/mg/min. Further, the “Specific activity, SULT” value in the data set with SULT came to 3.20 ± 0.26 nmol/mg/min.

On to `CC(C)=CCC/C(C)=C/CC/C(C)=C/CO` [FAR, farnesol], for which the “Specific Activity, CYP2B/3A” value in the data set on CYP2B/3A (human liver microsomes) came out at 0.033 ± 0.004 pmol/mg/min. The inhibition at 5 µM in the data set on CYP2B/3A came out at 85%. Moreover, in the data set on CYP2B/3A (human liver microsomes), the IC50 came to 1780 nM. The “Specific activity, AKR1C” value in the data set with AKR1C is 24.0 ± 1.5 nmol/mg/min. For the same compound, the “Specific activity, NQO1” value on NQO1 [1] came to 5.23 ± 1.03 nmol/mg/min; on NQO1 [2] it was 22.2 ± 3.3 nmol/mg/min. Also, on AKR1A, the “Specific activity, AKR1A” value was found to be 3.48 ± 0.32 nmol/mg/min. Moreover, the “Specific activity, SULT” value with SULT is 2.72 ± 0.23 nmol/mg/min.
